Results as given in patent US20060069132A1, “Azolecarboxamide herbicides” (priority 2004, published 2006).

Key:
giant foxtail [1] = assay: Test C pre-/postemergence herbicide test; format: in vivo, Setaria faberi
Procedure, shortened: (§1)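 Pre/post spray; non-phytotoxic solvent + surfactant. Post-timing 1–4 leaves, 2–18 cm. Read-out: visual % control vs untreated, day 12–14, greenhouse.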

morningglory = assay: Test C pre-/postemergence herbicide test; format: in vivo, Ipomoea coccinea; set-up: key to Plant response rating, Morningglory: 0 = no effect, 100 = complete control
Procedure, shortened: as §1

bermudagrass = assay: Test C pre-/postemergence herbicide test; format: in vivo, Cynodon dactylon
Procedure, shortened: as §1

giant foxtail [2] = assay: Test A pre-/postemergence herbicide test; format: in vivo, Setaria faberi
Procedure, shortened: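 Greenhouse injury scoring (0–100, complete control = 100) at approximately ten days follows simultaneous pre- and postemergence application. Soil received a directed spray after seeding; seedlings of 2–10 cm at the one- to two-leaf stage were sprayed to runoff.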

pigweed = assay: Test C pre-/postemergence herbicide test; format: in vivo, Amaranthus retroflexus
Procedure, shortened: as §1

kochia = assay: Test C pre-/postemergence herbicide test; format: in vivo, Kochia scoparia
Procedure, shortened: as §1

common ragweed = assay: Test C pre-/postemergence herbicide test; format: in vivo, Ambrosia elatior; set-up: key to Plant response rating, Ragweed: 0 = no effect, 100 = complete control
Procedure, shortened: as §1

soybean = assay: Test C pre-/postemergence herbicide test; format: in vivo, Glycine max
Procedure, shortened: as §1

yellow nutsedge = assay: Test C pre-/postemergence herbicide test; format: in vivo, Cyperus esculentus
Procedure, shortened: as §1

large crabgrass = assay: Test C pre-/postemergence herbicide test; format: in vivo, Digitaria sanguinalis
Procedure, shortened: as §1

[3] = 62 g ai/ha, preemergence, scale 0 to 100
[4] = 125 g ai/ha, scale 0 (no effect) to 100 (complete control), visual, 12 to 14 days, preemergence
[5] = 250 g ai/ha, scale 0-100, preemergence
[6] = 500 g ai/ha, scale 0 to 100 (0 no effect, 100 complete control), visual, 12 to 14 days, preemergence
[7] = Preemergence, 500 g ai/ha, scale 0 to 100, 0 no effect, 100 complete control
[8] = 125 g ai/ha, scale 0-100, preemergence
[9] = 250 g ai/ha, scale 0 to 100 (0 no effect, 100 complete control), visual, 12 to 14 days, preemergence
[10] = Postemergence, 500 g ai/ha, scale 0 to 100
[11] = Postemergence, 125 g ai/ha, scale 0 to 100, 0 no effect, 100 complete control
[12] = Postemergence, 250 g ai/ha, scale 0 to 100, 0 no effect, 100 complete control
[13] = postemergence, 62 g ai/ha, scale 0 to 100
[14] = postemergence, 125 g ai/ha, scale 0 to 100

CCNC(=O)c1ccc(F)c(NC(=O)C2CC(C(C)(C)C)=NN2CC)c1 (racemic) [Compound 269]
65: Plant response rating, Foxtail, Giant (giant foxtail [2]; Postemergence, 2000 g ai/ha, 0 to 100 scale, 0 no effect, 100 complete control)
5: Plant response rating, Morningglory (morningglory; [4]) | Plant response rating, Ragweed (common ragweed; [3]) | Plant response rating, Nutsedge, Yellow (yellow nutsedge; [3])
90: Plant response rating, Foxtail, Giant (giant foxtail [1]; [4]) | Plant response rating, Ragweed (common ragweed; [5]) | Plant response rating, Ragweed (common ragweed; [6])
35: Foxtail, Giant plant response rating (giant foxtail [2]; Postemergence, 500 g ai/ha, 0 to 100 scale, 0 no effect, 100 complete control)
0: Plant response rating, Morningglory (morningglory; [3]) | Plant response rating, Soybean (soybean; [3])
70: Plant response rating, Kochia (kochia; [3])
100: Plant response rating, Foxtail, Giant (giant foxtail [1]; [5]) | Plant response rating, Foxtail, Giant (giant foxtail [1]; [6]) | Plant response rating, Bermudagrass (bermudagrass; 62 g ai/ha, preemergence, scale 0 to 100, 0 no effect, 100 complete control) | Plant response rating, Bermudagrass (bermudagrass; [4]) | Plant response rating, Bermudagrass (bermudagrass; [5]) | Bermudagrass plant response rating (bermudagrass; [7]) | Foxtail, Giant plant response rating (giant foxtail [2]; Preemergence, 2000 g ai/ha, visual rating, 0 to 100 scale (0 no effect, 100 complete control)) | Foxtail, Giant plant response rating (giant foxtail [2]; preemergence, 500 g ai/ha, visual injury, 0 to 100 scale (0 no effect, 100 complete control)) | Plant response rating, Pigweed (pigweed; [3]) | Plant response rating, Pigweed (pigweed; [4]) | Plant response rating, Pigweed (pigweed; [5]) | Plant response rating, Pigweed (pigweed; [6]) | Plant response rating, Kochia (kochia; [4]) | Plant response rating, Kochia (kochia; [5]) | Plant response rating, Kochia (kochia; [6]) | Plant response rating, Crabgrass, Large (large crabgrass; [4]) | Plant response rating, Crabgrass, Large (large crabgrass; [5]) | Plant response rating, Crabgrass, Large (large crabgrass; [6])
95: Plant response rating, Crabgrass, Large (large crabgrass; [3])
60: Plant response rating, Soybean (soybean; [6]) | Plant response rating, Nutsedge, Yellow (yellow nutsedge; [6])
50: Plant response rating, Foxtail, Giant (giant foxtail [1]; [3]) | Plant response rating, Soybean (soybean; [5])
10: Plant response rating, Morningglory (morningglory; [5]) | Plant response rating, Nutsedge, Yellow (yellow nutsedge; [4])
40: Plant response rating, Morningglory (morningglory; [6]) | Plant response rating, Nutsedge, Yellow (yellow nutsedge; [5])

CCNC(=O)c1cccc(NC(=O)c2cc(C(C)(C)C)nn2CC(F)(F)F)c1 [Compound 31]
45: Foxtail, Giant plant response rating (giant foxtail [2]; Postemergence, 250 g ai/ha, 0 to 100 scale, 0 no effect, 100 complete control)
80: Plant response rating, Kochia (kochia; [8]) | Ragweed plant response rating (common ragweed; [7]) | Soybean plant response rating (soybean; [10])
40: Foxtail, Giant plant response rating (giant foxtail [1]; [10]) | Morningglory plant response rating (morningglory; [7]) | Bermudagrass plant response rating (bermudagrass; [10]) | Plant response rating, Ragweed (common ragweed; [12]) | Plant response rating, Ragweed (common ragweed; [14])
60: Plant response rating, Morningglory (morningglory; [12]) | Plant response rating, Ragweed (common ragweed; [9]) | Plant response rating, Crabgrass, Large (large crabgrass; [11]) | Plant response rating, Crabgrass, Large (large crabgrass; [12])
20: Plant response rating (0 = no effect, 100 = complete control), Foxtail, Giant (giant foxtail [1]; 62 g ai/ha, preemergence) | Plant response rating, Foxtail, Giant (giant foxtail [1]; [13]) | Plant response rating (0 = no effect, 100 = complete control), Bermudagrass (bermudagrass; 62 g ai/ha, preemergence) | Plant response rating, Bermudagrass (bermudagrass; [11]) | Bermudagrass plant response rating (bermudagrass; Postemergence, 250 g ai/ha, scale 0 to 100) | Foxtail, Giant plant response rating (giant foxtail [2]; preemergence, 250 g ai/ha, visual injury, 0 to 100 scale (0 no effect, 100 complete control)) | Soybean plant response rating (soybean; [7])
50: Plant response rating, Morningglory (morningglory; [14]) | Plant response rating, Morningglory (morningglory; [13]) | Foxtail, Giant plant response rating (giant foxtail [2]; Preemergence, 1000 g ai/ha, visual rating, 0 to 100 scale (0 no effect, 100 complete control)) | Plant response rating, Soybean (soybean; [14]) | Plant response rating, Crabgrass, Large (large crabgrass; [13])
0: Plant response rating (0 = no effect, 100 = complete control), Kochia (kochia; 62 g ai/ha, preemergence) | Plant response rating (0 = no effect, 100 = complete control), Ragweed (common ragweed; 62 g ai/ha, preemergence) | Plant response rating (0 = no effect, 100 = complete control), Soybean (soybean; 62 g ai/ha, preemergence) | Plant response rating (0 = no effect, 100 = complete control), Nutsedge, Yellow (yellow nutsedge; 62 g ai/ha, preemergence) | Plant response rating, Nutsedge, Yellow (yellow nutsedge; [9]) | Nutsedge, Yellow plant response rating (yellow nutsedge; [7]) | Plant response rating, Nutsedge, Yellow (yellow nutsedge; [14]) | Plant response rating, Nutsedge, Yellow (yellow nutsedge; [13])
10: Plant response rating, Bermudagrass (bermudagrass; [13]) | Plant response rating, Soybean (soybean; [9])
90: Plant response rating, Bermudagrass (bermudagrass; [8]) | Plant response rating, Pigweed (pigweed; [14]) | Plant response rating, Pigweed (pigweed; [13]) | Plant response rating (0 = no effect, 100 = complete control), Crabgrass, Large (large crabgrass; 62 g ai/ha, preemergence)
30: Plant response rating, Foxtail, Giant (giant foxtail [1]; [8]) | Plant response rating, Foxtail, Giant (giant foxtail [1]; [11]) | Plant response rating, Foxtail, Giant (giant foxtail [1]; [12]) | Plant response rating, Ragweed (common ragweed; [13]) | Plant response rating, Soybean (soybean; [13]) | Nutsedge, Yellow plant response rating (yellow nutsedge; [10]) | Plant response rating, Nutsedge, Yellow (yellow nutsedge; [12])
70: Plant response rating, Foxtail, Giant (giant foxtail [1]; [9]) | Morningglory plant response rating (morningglory; [10]) | Plant response rating, Foxtail, Giant (giant foxtail [2]; Postemergence, 1000 g ai/ha, 0 to 100 scale, 0 no effect, 100 complete control) | Kochia plant response rating (kochia; [10]) | Plant response rating, Kochia (kochia; [11]) | Plant response rating, Kochia (kochia; [12]) | Plant response rating, Kochia (kochia; [13]) | Ragweed plant response rating (common ragweed; [10]) | Plant response rating, Soybean (soybean; [12]) | Crabgrass, Large plant response rating (large crabgrass; [10])
100: Foxtail, Giant plant response rating (giant foxtail [1]; [7]) | Plant response rating, Bermudagrass (bermudagrass; [9]) | Bermudagrass plant response rating (bermudagrass; [7]) | Plant response rating (0 = no effect, 100 = complete control), Pigweed (pigweed; 62 g ai/ha, preemergence) | Plant response rating, Pigweed (pigweed; [9]) | Pigweed plant response rating (pigweed; [10]) | Plant response rating, Pigweed (pigweed; [12]) | Pigweed plant response rating (pigweed; [7]) | Plant response rating, Kochia (kochia; [9]) | Kochia plant response rating (kochia; [7]) | Plant response rating, Crabgrass, Large (large crabgrass; [8]) | Plant response rating, Crabgrass, Large (large crabgrass; [9]) | Crabgrass, Large plant response rating (large crabgrass; [7])
